This is an account of results in patent US8834579B2, “Dye composition for hair dyeing and method for producing the same” (Hodogaya Chemical Co., Ltd., priority 2012, dated 2014).

Read-outs that look alike come from different tables or passages of the source.

Data set [1] has as its system Salmonella typhimurium TA1537 strain. The following applies: TA1537 (TA1537 strain and/or TA98 strain); SCCP Opinion on Basic Brown 16, 2008; cited from earlier work.
In data set [2] the test system is Salmonella typhimurium TA98 strain. Conditions: TA98 (TA1537 strain and/or TA98 strain); SCCP Opinion on Basic Brown 16, 2008; cited from earlier work.
The conditions of data set [3]: strain not stated; SCCP Opinion on Basic Brown 16, 2008; cited from earlier work.
Data set [4] relates to Salmonella typhimurium TA98 strain. The data set can be described thus: Ames test (reverse mutation test), TA98 strain. The data set is classed as cell-based. The text has this:
(§1) The Ames test is a test system for detecting a phenomenon that a histidine-requiring strain, which cannot grow without a specific amino acid (for example, histidine), is returned to a histidine-nonrequiring strain by a gene mutation due to a mutational substance. The Ames test is also called a reverse mutation test because a strain regains its original nature by a gene mutation. In the case of a metabolic activation test, a test substance, a test strain, and an enzyme for activating metabolism of drugs (S-9Mix) are mixed, and the mixture is cultured for 48 hours at 37° C. using an agar medium after preincubation for 20 minutes at 37° C. The number of induced revertant colonies is counted, and it is determined to be positive in the case where the ratio (MR value) of the number of the induced revertant colonies to the number of revertant colonies appearing in a negative control is 2 or more (refer to, for example, “Bacterial Reverse Mutation Test.” OECD GUIDELINE FOR TESTING OF CHEMICALS, no. 471, Adopted: 21, Jul. 1997).
(§2) The metabolic activation test is a test carried out by adding an enzyme for activating metabolism of drugs (that is, S-9Mix) which is obtained from a liver of a rat or the like in order to bring a metabolic system of drugs for microbes close to that of mammals.
(§3) With respect to Basic Brown 16 before and after purification, the Ames test was carried out using Salmonella typhimurium TA98 strain and Salmonella typhimurium TA1537 strain with and without an enzyme for activating metabolism of drugs (S-9Mix) in each strain.
(§4) The Ames test was carried out on the same condition also with respect to the component indicating positive in the Ames test and represented by the structural formula (III) among impurities contained in Basic Brown 16.

Data set [5] concerns Salmonella typhimurium TA1537 strain. Kind of data set: Ames test (reverse mutation test), TA1537 strain. The data set is classed as cell-based.
Description: as §1, §2, §3, §4

Turning to `C[N+](C)(C)c1ccc2ccc(O)c(N=Nc3ccc(N)cc3)c2c1.[Cl-]` [Basic Brown 16], the Ames test result in data set [1], in data set [2] and in data set [3] was “positive” each time.
In the case of `CN(C)c1ccc2ccc(O)c(N=Nc3ccc(N)cc3)c2c1` [Component of structural formula (III)], the Ames test result in data set [4] (TA98) and in data set [5] (TA1537) was “positive (it is determined to be positive in the case where the ratio (MR value) of the number of the induced revertant colonies to the number of revertant colonies appearing in a negative control is 2 or more)” throughout. Also, the “MR value (ratio of induced revertant colonies to negative control)” value in data set [4] (TA98, +S9 (with S-9Mix)) is recorded as 53.0; in data set [4] (TA98, −S9 (without S-9Mix)), 0.9; in data set [5] (TA1537, +S9 (with S-9Mix)) it was 10.5; in data set [5] (TA1537, −S9 (without S-9Mix)), 1.2.
